Reference: ChEMBL document CHEMBL1201861, “Genomics of Drug Sensitity in Cancer screening data, Wellcome Trust Sanger Institute”

Legend:
Test in all cases: cells
Details in all cases: Homo sapiens
[1] = test system: COLO-800; format: functional, cell-based;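 also: growth inhibition of COLO-800 cells, read out with a cell viability assay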
[2] = test system: Calu-6; format: functional, cell-based;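 also: growth of human Calu-6 cells, read out by a cell viability assay, IC50 marking inhibition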
[3] = test system: DB; format: functional, cell-based
[4] = test system: no-10; format: functional, cell-based;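 also: growth inhibition of no-10 cells, read out with a cell viability assay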
[5] = test system: COLO-668; format: functional, cell-based
[6] = test system: EW-24; format: functional, cell-based;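 also: human EW-24 cancer cell line, growth inhibition read out via a cell viability assay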
[7] = test system: KARPAS-299; format: functional, cell-based
[8] = test system: U-87 MG; format: functional, cell-based, U-87MG ATCC;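 also: growth inhibition of the cells measured with a viability assay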
[9] = test system: NCI-H1092; format: functional, cell-based;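 also: cell growth inhibition measured with a cell viability assay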
[10] = test system: RXF 393; format: functional, cell-based;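 also: growth inhibition of human RXF 393 cells, read out with a cell viability assay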
[11] = test system: NCI-H2126; format: functional, cell-based;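 also: growth inhibition of the cancer cell line, determined with a cell viability readout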
[12] = test system: RKO; format: functional, cell-based;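 also: growth inhibition of human RKO cells, read out with a cell viability assay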
[13] = test system: L-363; format: functional, cell-based
[14] = test system: NEC8; format: functional, cell-based;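 also: growth inhibition of human NEC8 cells, read out by a cell viability assay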
[15] = test system: LOX IMVI; format: functional, cell-based
[16] = test system: no-11; format: functional, cell-based;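 also: growth inhibition of human NO-11 cells, read out with a cell viability assay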
[17] = test system: KALS-1; format: functional, cell-based;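 also: growth inhibition of KALS-1 cells, determined with a cell viability assay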
[18] = test system: KINGS-1; format: functional, cell-based;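 also: cell viability assay measuring suppression of KINGS-1 cell growth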
[19] = test system: TE-5; format: functional, cell-based;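 also: inhibition of cell growth, read out by a cell viability assay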
[20] = test system: SK-N-DZ; format: functional, cell-based;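 also: growth inhibition of the cancer cell line, read out through a viability assay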
[21] = test system: SK-NEP-1; format: functional, cell-based;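 also: growth inhibition of human SK-NEP-1 cells, read out by a cell viability assay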
[22] = test system: TE-8; format: functional, cell-based;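 also: growth inhibition of TE-8 cells, measured with a cell viability readout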
[23] = test system: GOTO; format: functional, cell-based;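 also: growth inhibition of GOTO cells, read out by a cell viability assay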
[24] = test system: EW-3; format: functional, cell-based;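 also: cell viability assay read-out, IC50 reflects inhibition of growth of the EW-3 cells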
[25] = test system: SW 962; format: functional, cell-based;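 also: growth inhibition of human SW962 cells, read out by a cell viability assay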
[26] = test system: NCI-H1155; format: functional, cell-based;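 also: cell growth inhibition measured by a viability assay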
[27] = test system: IA-LM; format: functional, cell-based;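 also: cell viability assay measuring growth inhibition of human IA-LM cells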
[28] = test system: NCI-H1648; format: functional, cell-based;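 also: cell viability assay measuring inhibition of NCI-H1648 cell growth, from the Sanger screening data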
[29] = test system: ML-2; format: functional, cell-based;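 also: growth inhibition of ML-2 cells, measured with a cell viability readout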
[30] = test system: LC-2-ad; format: functional, cell-based;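 also: growth inhibition of human LC-2-ad cells, read out with a cell viability assay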
[31] = test system: NB5; format: functional, cell-based;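 also: growth inhibition of NB5 cells, read out as cell viability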
[32] = test system: NCI-H1838; format: functional, cell-based;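 also: growth inhibition of NCI-H1838 cells, determined with a cell viability readout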
[33] = test system: TGBC1TKB; format: functional, cell-based;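 also: growth inhibition of TGBC1TKB cells, read out by a cell viability assay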
[34] = test system: SF-126; format: functional, cell-based;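 also: growth inhibition of human SF126 cells, read out with a cell viability assay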
[35] = test system: TK-10; format: functional, cell-based;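 also: growth inhibition of TK-10 cells, read out in a cell viability assay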
[36] = test system: LB373-MEL-D; format: functional, cell-based;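 also: growth inhibition of the cell line, read out in a cell viability assay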
[37] = test system: EW-11; format: functional, cell-based;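 also: growth inhibition of human EW-11 cells, measured with a cell viability assay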
[38] = test system: SBC-1; format: functional, cell-based;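 also: cell viability assay measuring growth inhibition of the SBC-1 cell line, IC50 being the concentration that halves growth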
[39] = test system: NCI-H23; format: functional, cell-based;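 also: cell viability assay measuring growth inhibition of NCI-H23 cells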
[40] = test system: KLE; format: functional, cell-based;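 also: growth inhibition of human KLE cells, read out with a cell viability assay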
[41] = test system: GAK; format: functional, cell-based
[42] = test system: K562; format: functional, cell-based
[43] = test system: HT-144; format: functional, cell-based
[44] = test system: MZ7-mel; format: functional, cell-based;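 also: growth inhibition of human MZ7-mel cells, measured by a cell viability assay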
[45] = test system: NCI-H1395; format: functional, cell-based;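 also: cell viability assay read-out quantifying reduced proliferation of human NCI-H1395 cells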
[46] = test system: TE-9; format: functional, cell-based;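 also: cell growth inhibition, measured with a cell viability readout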
[47] = test system: A101D; format: functional, cell-based;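 also: growth inhibition of the cell line, measured with a viability assay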
[48] = test system: MS-1; format: functional, cell-based;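 also: growth inhibition of MS-1 cells, read out by cell viability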
[49] = test system: EW-16; format: functional, cell-based;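 also: growth inhibition of human EW-16 cells, read out as cell viability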
[50] = test system: KNS-81-FD; format: functional, cell-based;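 also: growth inhibition of KNS-81-FD cells, read out with a cell viability assay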
[51] = test system: VA-ES-BJ; format: functional, cell-based;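 also: growth inhibition of the VA-ES-BJ cell line, read out by a cell viability assay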
[52] = test system: SH-4; format: functional, cell-based;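 also: growth inhibition of SH-4 cells, read out with a cell viability assay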
[53] = test system: HD-MY-Z; format: functional, cell-based;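 also: growth inhibition of HD-MY-Z cells, read out with a cell viability assay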
[54] = test system: KGN; format: functional, cell-based;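 also: growth inhibition of KGN cells, read out with a cell viability assay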
[55] = test system: CGTH-W-1; format: functional, cell-based;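 also: growth inhibition of human CGTH-W-1 cells measured by cell viability assay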
[56] = test system: NCI-H1650; format: functional, cell-based;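 also: growth inhibition of human NCI-H1650 cells measured by a cell viability assay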
[57] = test system: EM-2; format: functional, cell-based;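 also: growth inhibition of EM-2 cells, read out with a cell viability assay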
[58] = test system: HC-1; format: functional, cell-based;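 also: growth inhibition of HC-1 cells measured by a cell viability assay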
[59] = test system: NCI-H226; format: functional, cell-based
[60] = test system: GR-ST; format: functional, cell-based
[61] = test system: EKVX; format: functional, cell-based
[62] = test system: MZ1-PC; format: functional, cell-based
[63] = test system: DEL; format: functional, cell-based
[64] = test system: SK-PN-DW; format: functional, cell-based
[65] = test system: NCI-H1355; format: functional, cell-based
[66] = test system: TE-12; format: functional, cell-based

Which results are given for `C[C@]12O[C@H](C[C@]1(O)CO)n1c3ccccc3c3c4c(c5c6ccccc6n2c5c31)CNC4=O` [LESTAURTINIB]?
IC50 [1]: 190 nM; IC50 [2]: > 2000 nM; IC50 [3]: 802 nM; IC50 [4]: > 2000 nM; IC50 [5]: > 2000 nM; IC50 [6]: 266 nM; IC50 [7]: > 2000 nM; IC50 [8]: > 2000 nM; IC50 [9]: > 2000 nM; IC50 [10]: 917 nM; IC50 [11]: > 2000 nM; IC50 [12]: 299 nM; IC50 [13]: 147 nM; IC50 [14]: 268 nM; IC50 [15]: 298 nM; IC50 [16]: > 2000 nM; IC50 [17]: 689 nM; IC50 [18]: 547 nM; IC50 [19]: > 2000 nM; IC50 [20]: 258 nM; IC50 [21]: 112 nM; IC50 [22]: 667 nM; IC50 [23]: 940 nM; IC50 [24]: 125 nM; IC50 [25]: 154 nM; IC50 [26]: 912 nM; IC50 [27]: > 2000 nM; IC50 [28]: > 2000 nM; IC50 [29]: 195 nM; IC50 [30]: 257 nM; IC50 [31]: 471 nM; IC50 [32]: > 2000 nM; IC50 [33]: > 2000 nM; IC50 [34]: 273 nM; IC50 [35]: 251 nM; IC50 [36]: > 2000 nM; IC50 [37]: 132 nM; IC50 [38]: 60.6 nM; IC50 [39]: 1690 nM; IC50 [40]: > 2000 nM; IC50 [41]: […]; IC50 [42]: > 2000 nM; IC50 [43]: 978 nM; IC50 [44]: 603 nM; IC50 [45]: 281 nM; IC50 [46]: 415 nM; IC50 [47]: 67 nM; IC50 [48]: > 2000 nM; IC50 [49]: 226 nM; IC50 [50]: 1480 nM; IC50 [51]: 389 nM; IC50 [52]: 110 nM; IC50 [53]: 13.9 nM; IC50 [54]: 138 nM; IC50 [55]: 43.6 nM; IC50 [56]: > 2000 nM; IC50 [57]: 450 nM; IC50 [58]: 922 nM; IC50 [59]: > 2000 nM; IC50 [60]: 494 nM; IC50 [61]: 606 nM; IC50 [62]: > 2000 nM; IC50 [63]: 47.3 nM; IC50 [64]: 394 nM; IC50 [65]: > 2000 nM; IC50 [66]: > 2000 nM

`CCNC(=O)c1noc(-c2cc(C(C)C)c(O)cc2O)c1-c1ccc(CN2CCOCC2)cc1` [LUMINESPIB] was tested. Which IC50 [1] did it give?
Its IC50 is > 256 nM.

And the IC50 [2]?
The IC50 was 79.6 nM.

What about the IC50 [3] of the same molecule?
Its IC50 is 229 nM.

And the IC50 [4]?
The IC50 was 30.2 nM.

And the IC50 [5]?
Its IC50 is 79.8 nM.

What about the IC50 [6] of the same molecule?
The IC50 was > 256 nM.

And the IC50 [7]?
The IC50 was 230 nM.

And the IC50 [8]?
Its IC50 is 32.9 nM.

What about the IC50 [9] of the same molecule?
Its IC50 is 141 nM.

And the IC50 [10]?
Its IC50 is 8.6 nM.

What about the IC50 [11] of the same molecule?
The IC50 was > 256 nM.

And the IC50 [12]?
The IC50 was 8.26 nM.

What about the IC50 [13] of the same molecule?
The IC50 was 69 nM.

What about the IC50 [14] of the same molecule?
The IC50 was > 256 nM.

And the IC50 [15]?
The IC50 was 23.2 nM.

What about the IC50 [16] of the same molecule?
Its IC50 is 30.5 nM.

What about the IC50 [17] of the same molecule?
Its IC50 is 14.7 nM.

What about the IC50 [18] of the same molecule?
The IC50 was 24.3 nM.

And the IC50 [19]?
The IC50 was > 256 nM.

What about the IC50 [20] of the same molecule?
Its IC50 is 179 nM.

And the IC50 [21]?
The IC50 was 159 nM.

What about the IC50 [22] of the same molecule?
Its IC50 is 2.37 nM.

What about the IC50 [23] of the same molecule?
Its IC50 is 172 nM.

And the IC50 [24]?
Its IC50 is 175 nM.

What about the IC50 [25] of the same molecule?
Its IC50 is 28.5 nM.

What about the IC50 [26] of the same molecule?
Its IC50 is > 256 nM.

What about the IC50 [27] of the same molecule?
Its IC50 is 10.9 nM.

And the IC50 [28]?
The IC50 was 15 nM.

What about the IC50 [29] of the same molecule?
Its IC50 is 36.7 nM.

What about the IC50 [30] of the same molecule?
The IC50 was 13.7 nM.

And the IC50 [31]?
Its IC50 is 36.1 nM.

And the IC50 [32]?
Its IC50 is > 256 nM.

What about the IC50 [33] of the same molecule?
The IC50 was 210 nM.

What about the IC50 [34] of the same molecule?
Its IC50 is 50.1 nM.

And the IC50 [35]?
The IC50 was 13.8 nM.

What about the IC50 [36] of the same molecule?
Its IC50 is > 256 nM.

And the IC50 [37]?
Its IC50 is 75.4 nM.

What about the IC50 [38] of the same molecule?
Its IC50 is > 256 nM.

What about the IC50 [39] of the same molecule?
The IC50 was 241 nM.

And the IC50 [40]?
Its IC50 is 162 nM.

What about the IC50 [41] of the same molecule?
The IC50 was 57.3 nM.

And the IC50 [42]?
The IC50 was 53.9 nM.

And the IC50 [43]?
Its IC50 is 1.55 nM.

And the IC50 [44]?
The IC50 was 43.3 nM.

What about the IC50 [45] of the same molecule?
Its IC50 is > 256 nM.

And the IC50 [46]?
The IC50 was 42.4 nM.

What about the IC50 [47] of the same molecule?
Its IC50 is 19.9 nM.

What about the IC50 [48] of the same molecule?
The IC50 was 186 nM.

What about the IC50 [49] of the same molecule?
Its IC50 is 7.49 nM.

And the IC50 [50]?
The IC50 was 69.2 nM.

And the IC50 [51]?
The IC50 was 42.9 nM.

What about the IC50 [52] of the same molecule?
The IC50 was 41.4 nM.

What about the IC50 [53] of the same molecule?
Its IC50 is 144 nM.

And the IC50 [54]?
Its IC50 is 7.03 nM.

And the IC50 [55]?
The IC50 was 23.3 nM.

And the IC50 [56]?
Its IC50 is 16.5 nM.

What about the IC50 [57] of the same molecule?
The IC50 was > 256 nM.

And the IC50 [58]?
Its IC50 is 40.7 nM.

What about the IC50 [59] of the same molecule?
The IC50 was 59.9 nM.

What about the IC50 [60] of the same molecule?
The IC50 was 102 nM.

And the IC50 [61]?
The IC50 was 105 nM.

And the IC50 [62]?
Its IC50 is 26.4 nM.

And the IC50 [63]?
Its IC50 is 112 nM.

What about the IC50 [64] of the same molecule?
Its IC50 is 55.9 nM.

And the IC50 [65]?
The IC50 was 24 nM.

And the IC50 [66]?
Its IC50 is 17.8 nM.
